Measurements taken from ChEMBL document CHEMBL4811279, “N-Substituted pyrrolopyrimidines and purines as p90 ribosomal S6 protein kinase-2 (RSK2) inhibitors” (Bioorg Med Chem, 2021).

target: Ribosomal protein S6 kinase alpha-3 (Homo sapiens) (UniProt P51812); assay: Inhibition of RSK2 (unknown origin) using Ulight-rpS6 as substrate at 10 uM incubated for 1 hr in presence of ATP by TR FRET assay
Sequence (P51812 whole entry): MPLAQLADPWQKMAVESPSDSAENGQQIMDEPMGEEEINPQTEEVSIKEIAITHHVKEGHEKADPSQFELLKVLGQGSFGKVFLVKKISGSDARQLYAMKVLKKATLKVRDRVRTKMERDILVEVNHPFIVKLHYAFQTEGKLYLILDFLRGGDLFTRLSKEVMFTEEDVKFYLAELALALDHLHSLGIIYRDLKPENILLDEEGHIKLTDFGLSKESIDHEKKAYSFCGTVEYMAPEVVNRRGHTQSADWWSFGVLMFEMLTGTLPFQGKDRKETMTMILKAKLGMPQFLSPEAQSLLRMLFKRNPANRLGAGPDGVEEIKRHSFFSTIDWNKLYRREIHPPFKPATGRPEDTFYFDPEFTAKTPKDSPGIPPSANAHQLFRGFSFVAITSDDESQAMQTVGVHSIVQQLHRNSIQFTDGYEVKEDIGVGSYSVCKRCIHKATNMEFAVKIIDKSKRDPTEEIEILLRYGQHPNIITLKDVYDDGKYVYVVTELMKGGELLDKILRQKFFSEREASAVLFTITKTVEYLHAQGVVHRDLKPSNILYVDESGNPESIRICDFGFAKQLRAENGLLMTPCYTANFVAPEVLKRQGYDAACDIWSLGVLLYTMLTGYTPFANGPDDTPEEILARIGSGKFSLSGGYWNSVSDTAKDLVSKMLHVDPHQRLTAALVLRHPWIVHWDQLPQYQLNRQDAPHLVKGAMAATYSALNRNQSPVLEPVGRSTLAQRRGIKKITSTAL

Row | inhibition [%] | SMILES
1 | 77 | Oc1c(F)cc(Nc2ncc3cc[nH]c3n2)cc1F
2 | 67 | Oc1c(F)cc(Nc2ncc3nc[nH]c3n2)cc1F
3 | 63 | Oc1c(F)cc(Nc2ncc3ncn(-c4cccc(OCc5ccccc5)c4)c3n2)cc1F
4 | 42 | Oc1c(F)cc(Nc2ncc3ncn(-c4ccc(OCc5ccccc5)cc4)c3n2)cc1F
5 | 49 | Oc1c(F)cc(Nc2ncc3ncn(-c4ccc(-c5ccccc5)cc4)c3n2)cc1F
